Entries after “also recorded” stand apart in the source; their conditions may differ.
What was measured:
p-Akt = test: western blot of p-Akt in SK-Hep-1 cells; format: cell-based; details: for p-Akt level: SK-Hep-1 cells, 5 μM, 30 hours (FIG. 4A)
Description: (§1) Next, compounds […], 19, and 22 were used to explore whether downregulation of CIP2A lead to suppression of p-Akt. FIG. 4A is the western blot analysis of the effect of the compounds 4, 19, and 22 on phosphorylation of Akt, PARP and Actin. In this western blot analysis, SK-Hep-1 cells were respectively treated with compounds 4, 19, and 22 at a concentration of 5 μM for 30 hours. […] That is, compound 19 and 22 can substantially increase apoptotic cell death to inhibit cancer growth.
In other words, in the present of okadaic acid, the activation of PP2A by compound 19-incuced CIP2A inactivation is blocked.

PARP [1] = test: western blot of PARP cleavage in SK-Hep-1 cells; format: cell-based; details: 5 μM, 30 hours (FIG. 4A)
Description: as §1

CIP2A [2] = test: western blot of CIP2A expression in SK-Hep1 cells; format: cell-based; details: SK-Hep-1 cells; for inhibiting CIP2A expression: 5 μM, 30 hours (FIG. 4A)
Description: Accordingly, the pyrimidine and quinazoline derivatives above were screened by using western blot analysis for expression of CIP2A in SK-Hep1 cells. Before the western blot analysis, the SK-Hep-1 cells were maintained in DMEM supplemented with 10% FBS, 100 units/mL penicillin G, 100 μg/mL streptomycin sulfate and 25 μg/mL amphotericin B in a 37° C. humidified incubator in an atmosphere of 5% CO2 in air. In this western blot analysis, SK-Hep1 cells were respectively treated with compounds 1-24 at a concentration of 20 μM for 24 hours. In FIG. 2, the mono-substituted pyrimidine derivatives (compounds 1-5) have no appreciable change in CIP2A expression.
Cell viability, measured by MTT assay, and CIP2A expressions, analyzed by western blot, in response to compound 19 or erlotinib treatment in SK-Hep1 cell line were analyzed. SK-Hep-1 cells were treated with erlotinib and compound 19 at 2.5 and 5 μM for 24 h, respectively. The SK-Hep1 cells were then analyzed with western blot assay and MTT assay.
as §1

[3] = tested on: SK-Hep-1 cell lines (a hepatocellular carcinoma (HCC) cell); test: MTT assay, growth inhibition of SK-Hep-1 cells; format: cell-based; details: for IC50: SK-Hep-1 cells, 48 hours
Description: MTT assay was used to measure growth inhibition. […] MTT (3-(4,5-dimethylthiazol-2-yl)-2,5-diphenyl tetrazolium bromide) assay was performed as follow.
(§2) The effect of individual test compounds on cell viability was assessed by using the MTT in 6 replicates. Sk-Hep-1 cells were seeded and incubated in 96-well, flat-bottomed plates for 24 hours, and were exposed to various concentrations of test compounds dissolved in DMSO (final concentration, 0.1%) for 48 hours. Controls received DMSO vehicle at a concentration equal to that in drug-treated cells. The medium was removed, replaced by 200 μL of 0.5 mg/mL MTT in 10% fetal bovine serum containing DMEM (Dulbecco's Modified Eagle Medium), and cells were incubated in the carbon dioxide incubator at 37° C. for 2 hours. Supernatants were removed from the wells and the reduced MTT dye was solubilized in 100 μL/well DMSO. Absorbance at 570 nm was determined on a plate reader.
The SK-Hep1 cells were then analyzed with western blot assay and MTT assay.

PLC5 xenograft tumor = PLC5 xenograft tumor growth in nude mice; details: erlotinib 50 mg/kg/day; for effect on PLC5 tumor growth, in words: p.o. daily for 3 weeks, compounds 20 mg/kg/day (FIG. 6A-6B); for tumor inhibition, PLC5 cell: p.o. daily, after 21 days of treatment, compounds 8 and 19 20 mg/kg/day
Description: (§6) The mice were housed in groups and maintained under standard laboratory conditions on a 12-hour light-dark cycle. They were given access to sterilized food and water ad libitum. All experimental procedures using these mice were performed in accordance with protocols approved by the Institutional Laboratory Animal Care and Use Committee of National Taiwan University. Each mouse was inoculated s.c. in the dorsal flank with 1×10^6 HCC cells suspended in 0.1 ml of serum-free medium containing 50% Matrigel (BD Biosciences, Bedford, Mass.). […] Controls received vehicle.
(§7) Tumor growth data points are reported as mean tumor volume±SE.

EGFR [4] = molecular target: T1, EGFR (Homo sapiens, UniProt P00533, DEL746-750); test: western blot of EGFR phosphorylation in PC9 cells; format: cell-based; details: for EGFR phosphorylation inhibition (western blot): PC9 cells, 2 μM, 24 h (FIG. 3A)
T1 construct: endogenous in cells; host or cells: PC9 cells
Description: 40 μg/per lane of cell lysates were analyzed by western blot. The antibodies of actin, EGFR, and p-EGFR were from Cell Signaling (Danvers, Mass.). In FIGS. 1A-1B, actin lines are used to show an internal standard for the loading control in this western blot.

Huh-7 xenograft tumor = Huh-7 xenograft tumor growth in nude mice; details: erlotinib 50 mg/kg/day; for effect on Huh-7 tumor growth, in words: p.o. daily for 3 weeks, compounds 20 mg/kg/day (FIG. 7A-7B); for tumor inhibition, Huh7 cell: p.o. daily, after 21 days of treatment, compounds 8 and 19 20 mg/kg/day
Description: as §6, §7

EGFR [5] = molecular target: EGFR (Homo sapiens, UniProt P00533); test: western blot of EGFR phosphorylation in H358 cells; details: 1 and 5 μM, 24 hours (FIG. 1C)
CIP2A [6] = test: western blot of CIP2A expression in H358, H460 and H322 lung cancer cells; format: cell-based; details: 5 μM (FIG. 3C)
Description: (§3) Similarly, CIP2A expressions analyzed by western blot were also performed for lung cancer cells, H358, H460, and H322 cell lines. Moreover, drug-induced apoptotic cell death was also assessed by western blot analysis of activated caspases cleaved poly(ADP-ribose)polymerase (PARP). The cleavage of PARP is explained as follow. The compound induces apoptotic signal which cleave the procaspase 3 to the active caspase 3. The activation of caspase 3 further cleaves PARP and inactivate PAPR function. The events are thought to be required in late apoptosis. Therefore, the PARP cleavage is an indicator of apoptosis.
(§4) In the PARP row of FIG. 3C, the upper bands represented the uncleavage PARP, and the middle band and lower band represented cleavage PARP.

[7] = tested on: SK-Hep-1 cell lines (a hepatocellular carcinoma (HCC) cell); test: MTT assay, growth inhibition of SK-Hep-1 cells; format: cell-based; details: 2.5 and 5 μM, 24 h (FIG. 3B)
Hep3B cell lines = test: MTT assay, growth inhibition of Hep3B cells; format: cell-based; details: Homo sapiens
Description: as §2
(§5) Next, compounds 19, and 34-36 were screened against a panel of Hep3B cell lines for growth-inhibitory activities. […] Compounds 87-90, 95 and 96 were screened against a panel of PLC5 cell lines for growth-inhibitory activities.

PARP [8] = test: western blot of PARP cleavage in H358, H460 and H322 lung cancer cells; format: cell-based; details: 5 μM (FIG. 3C)
Description: as §3, §4

SK-Hep-1 cells = test: apoptotic cell death by flow cytometry (sub-G1) and cell death detection ELISA; format: cell-based; details: 2.5 and 5 μM, 24 h (FIG. 4B-4C)
Description: FIG. 4B is flow cytometry analysis of cell death induced by compounds 4, 19, and 22 at 5 μM, after 24 h of treatment in SK-Hep-1 cells. The apoptotic cells were assessed by flow cytometry (sub-G1). After Sk-Hep-1 cells were treated with compounds 4, 19, and 22, Sk-Hep-1 cells were trypsinized, collected by centrifugation and resuspended in PBS. After centrifugation, the cells were washed in PBS and resuspended in […] (PI) staining solution. Specimens were incubated in the dark for 30 min at 37° C. and then analyzed with an EPICS Profile II flow cytometer (Coulter Corp., Hialeah, Fla.). All experiments were performed in triplicate
FIG. 4C is ELISA analysis of cell death to analyze effects of compounds 4, 19, and 22 on DNA fragmentation in SK-Hep-1 cells. The effect of compounds 4, 19 and 22 on cell viability was assessed by a cell death detection ELISA kit (Roche Applied Science, Mannheim, Germany). SK-Hep-1 cells were treated with compounds 4 and 19 at 22 at 2.5 and 5 μM for 24 h. The cells were collected and assayed according to the standard protocol provided by the manufacturer.

PLC5 cell lines = test: MTT assay, growth inhibition of PLC5 cells; format: cell-based
Description: as §2, §5

CIP2A [9] = test: western blot of CIP2A expression in PLC/PRF/5 cells; format: cell-based; details: 10 μM, 48 hours (FIG. 8)
Description: PLC/PRF/5 cells were exposed to compounds 88, 95 and 96 at various doses (5 and 10 μM) for 48 hours. Total lysates were subjected to CIP2A protein analysis by western blot. Actin was used as a loading control.

[10] = tumor-bearing mice, p.o. daily for 3 weeks; erlotinib 50 mg/kg/day, compounds 8 and 19 20 mg/kg/day

T1 sequence (P00533 with tags, fused parts or gaps DEL746-750): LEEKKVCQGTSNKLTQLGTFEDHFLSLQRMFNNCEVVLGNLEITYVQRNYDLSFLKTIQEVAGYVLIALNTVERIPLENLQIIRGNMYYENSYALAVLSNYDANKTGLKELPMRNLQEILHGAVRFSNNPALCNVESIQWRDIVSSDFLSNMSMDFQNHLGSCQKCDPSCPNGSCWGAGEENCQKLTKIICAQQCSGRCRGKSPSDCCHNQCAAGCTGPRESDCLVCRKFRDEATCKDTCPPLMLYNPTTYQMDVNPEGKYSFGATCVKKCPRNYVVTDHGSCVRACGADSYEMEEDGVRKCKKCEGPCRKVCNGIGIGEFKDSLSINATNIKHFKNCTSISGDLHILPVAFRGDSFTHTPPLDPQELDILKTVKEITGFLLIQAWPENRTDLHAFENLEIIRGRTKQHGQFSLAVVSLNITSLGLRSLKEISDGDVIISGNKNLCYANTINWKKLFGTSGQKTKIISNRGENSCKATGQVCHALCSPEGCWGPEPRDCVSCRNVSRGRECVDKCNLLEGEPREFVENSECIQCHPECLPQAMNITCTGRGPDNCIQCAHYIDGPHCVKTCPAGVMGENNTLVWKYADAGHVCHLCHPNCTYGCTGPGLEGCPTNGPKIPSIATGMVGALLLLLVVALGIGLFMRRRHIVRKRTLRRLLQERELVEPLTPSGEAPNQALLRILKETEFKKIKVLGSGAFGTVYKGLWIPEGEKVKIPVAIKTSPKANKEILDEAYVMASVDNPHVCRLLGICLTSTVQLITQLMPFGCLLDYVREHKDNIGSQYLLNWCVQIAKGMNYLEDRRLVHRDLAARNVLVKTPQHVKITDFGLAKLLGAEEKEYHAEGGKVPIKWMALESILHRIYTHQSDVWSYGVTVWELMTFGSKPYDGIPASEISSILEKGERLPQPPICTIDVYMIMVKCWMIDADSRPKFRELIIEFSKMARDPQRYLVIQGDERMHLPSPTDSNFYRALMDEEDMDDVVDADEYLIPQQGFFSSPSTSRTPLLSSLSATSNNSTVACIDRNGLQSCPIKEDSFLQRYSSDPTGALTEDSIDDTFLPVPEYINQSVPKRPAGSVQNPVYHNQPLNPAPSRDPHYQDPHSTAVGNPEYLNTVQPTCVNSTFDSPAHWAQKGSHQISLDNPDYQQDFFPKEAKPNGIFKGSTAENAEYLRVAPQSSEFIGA
Chain of EGFR (Homo sapiens, UniProt P00533) (P00533 25-1210): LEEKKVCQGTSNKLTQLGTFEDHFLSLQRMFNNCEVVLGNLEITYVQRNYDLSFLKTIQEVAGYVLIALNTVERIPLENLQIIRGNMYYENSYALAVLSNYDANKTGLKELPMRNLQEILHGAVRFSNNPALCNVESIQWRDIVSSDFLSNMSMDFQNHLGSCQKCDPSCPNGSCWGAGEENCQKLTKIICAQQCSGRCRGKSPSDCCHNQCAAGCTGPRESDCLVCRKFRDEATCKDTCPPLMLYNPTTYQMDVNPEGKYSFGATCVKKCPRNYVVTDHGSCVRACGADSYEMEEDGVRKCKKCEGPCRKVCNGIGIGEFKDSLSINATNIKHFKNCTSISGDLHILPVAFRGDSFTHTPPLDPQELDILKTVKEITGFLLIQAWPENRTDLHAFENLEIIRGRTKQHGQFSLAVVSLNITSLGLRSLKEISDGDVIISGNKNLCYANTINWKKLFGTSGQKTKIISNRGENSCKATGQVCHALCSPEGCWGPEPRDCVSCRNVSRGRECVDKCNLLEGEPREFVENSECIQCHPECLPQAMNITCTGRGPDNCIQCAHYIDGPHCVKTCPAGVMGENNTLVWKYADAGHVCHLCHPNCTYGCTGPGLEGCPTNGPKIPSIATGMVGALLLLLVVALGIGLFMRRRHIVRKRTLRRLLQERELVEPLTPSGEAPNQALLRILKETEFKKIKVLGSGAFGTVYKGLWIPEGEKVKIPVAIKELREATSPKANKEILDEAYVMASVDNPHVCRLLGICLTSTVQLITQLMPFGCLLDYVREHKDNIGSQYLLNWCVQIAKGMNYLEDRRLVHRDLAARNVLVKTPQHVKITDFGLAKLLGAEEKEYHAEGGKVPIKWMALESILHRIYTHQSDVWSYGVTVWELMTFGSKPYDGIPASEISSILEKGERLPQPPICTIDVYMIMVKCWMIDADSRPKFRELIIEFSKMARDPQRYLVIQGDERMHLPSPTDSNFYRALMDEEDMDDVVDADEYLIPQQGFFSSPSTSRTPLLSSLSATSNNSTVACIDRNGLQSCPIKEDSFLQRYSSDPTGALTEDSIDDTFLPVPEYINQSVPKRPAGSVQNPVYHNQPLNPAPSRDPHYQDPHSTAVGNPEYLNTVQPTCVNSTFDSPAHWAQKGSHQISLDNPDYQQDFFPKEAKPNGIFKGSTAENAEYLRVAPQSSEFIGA

## Clc1nccc(Nc2ccc(Oc3ccccc3)cc2)n1 [Compound 4, 2-Chloro-N-(4-phenoxyphenyl)pyrimidin-4-amine]
p-Akt
  p-Akt level: no activity
PARP [1]
  PARP cleavage: no activity
CIP2A [2]
  inhibiting CIP2A expression: no activity
[3]; Homo sapiens, SK-HEP1, 48 h
  IC50: > 40 µM
[3]; SK-Hep-1 (HCC) cells
  growth-inhibitory activity (MTT), in words: no activity in either assay

## C#Cc1cccc(Nc2nc(Cl)nc3cc(OC)c(OC)cc23)c1 [Compound 8, 2-Chloro-N-(3-ethynylphenyl)-6,7-dimethoxyquinazoline-4-amine]
PLC5 xenograft tumor
  effect on PLC5 tumor growth, in words: significantly reduced the growth of tumor
  tumor inhibition, PLC5 cell: 45.7%
EGFR [4]; PC9 cells, 0.5, 1, 2, 4, and 8 μM, 24 hours (FIG. 1A-1B)
  EGFR kinase inhibition (p-EGFR western blot): devoid of EGFR kinase inhibition
[3]; Homo sapiens, SK-HEP1, 48 h
  IC50: < 10 µM
Huh-7 xenograft tumor
  effect on Huh-7 tumor growth, in words: better inhibitory effect on Huh-7 tumors than erlotinib
  tumor inhibition, Huh7 cell: 40.3%
EGFR [5]
  EGFR phosphorylation inhibition (western blot): devoid of EGFR kinase inhibition

## C#Cc1cccc(Nc2nc(Nc3ccc(Oc4ccccc4)cc3)nc3cc(OC)c(OC)cc23)c1 [Compound 19, N^4-(3-Ethynylphenyl)-6,7-dimethoxy-N^2-(4-phenoxyphenyl)quinazoline-2,4-diamine]
PLC5 xenograft tumor
  effect on PLC5 tumor growth, in words: significantly reduced the growth of tumor; also recorded: better inhibitory effect on PLC5 tumors than erlotinib; also recorded: significantly reducing the growth of tumor
  tumor inhibition, PLC5 cell: 60.6%
p-Akt
  p-Akt level: reducing p-Akt level; also recorded: reduced Akt phosphorylation
PARP [1]
  PARP cleavage: inducing PARP cleavage
CIP2A [6]
  CIP2A expression: down-regulate the expression of CIP2A
[7]
  cell viability (MTT): reduce the CIP2A expression and the cell viability in a dosage dependent manner
EGFR [4]
  EGFR phosphorylation inhibition (western blot): no inhibitory effect on EGFR kinase
CIP2A [2]
  inhibiting CIP2A expression: inhibiting CIP2A expression; also recorded: most potent inhibition of CIP2A expression
CIP2A [2]; 2.5 and 5 μM, 24 h (FIG. 3B)
  CIP2A expression: reduce the CIP2A expression
Hep3B cell lines
  IC50: 1.28 µM
[3]
  IC50: 2.8 µM
PARP [8]
  PARP cleavage: induce the cleavage of PARP
SK-Hep-1 cells
  cell apoptosis (sub-G1 flow cytometry, DNA fragmentation ELISA): induced cell apoptosis
Huh-7 xenograft tumor
  effect on Huh-7 tumor growth, in words: better inhibitory effect on Huh-7 tumors than erlotinib
  tumor inhibition, Huh7 cell: 34.8%

## C#Cc1cccc(Nc2nc(NCc3ccccc3)nc3cc(OC)c(OC)cc23)c1 [Compound 22, N^2-Benzyl-N^4-(3-ethynylphenyl)-6,7-dimethoxy quinazoline-2,4-diamine]
PLC5 xenograft tumor
  effect on PLC5 tumor growth, in words: significantly reducing the growth of tumor
p-Akt
  p-Akt level: reducing p-Akt level; also recorded: reduced Akt phosphorylation
PARP [1]
  PARP cleavage: inducing PARP cleavage
EGFR [4]
  EGFR phosphorylation inhibition (western blot): no inhibitory effect on EGFR kinase
CIP2A [2]
  inhibiting CIP2A expression: inhibiting CIP2A expression; also recorded: most potent inhibition of CIP2A expression
[3]
  IC50: 2.8 µM
SK-Hep-1 cells
  cell apoptosis (sub-G1 flow cytometry, DNA fragmentation ELISA): induced cell apoptosis

## C#Cc1cccc(Nc2nc(Nc3ccc(Cl)c(Oc4ccc(C#N)c(Cl)c4)c3)nc3cc(OC)c(OC)cc23)c1 [Compound 88, 2-chloro-4-(2-chloro-5-((4-((3-ethynylphenyl)amino)-6,7-dimethoxyquinazolin-2-yl)amino)phenoxy)benzonitrile]
PLC5 cell lines; PLC5, PLC5 cells
  IC50: 12.7 µM
CIP2A [9]
  inhibition of CIP2A expression: high degree of repression of CIP2A

## C#Cc1cccc(Nc2nc(Nc3ccc(Oc4ccc(Cl)c(Cl)c4)cc3)nc3cc(OC)c(OC)cc23)c1 [Compound 95, N^2-(4-(3,4-dichlorophenoxyl)phenyl)-N^4-(3-ethynylphenyl)-6,7-dimethoxyquinazoline-2,4-diamine]
PLC5 cell lines; PLC5 cells
  IC50: 0.95 µM
CIP2A [9]
  inhibition of CIP2A expression: high degree of repression of CIP2A

## C#Cc1cccc(Nc2ncnc3cc(OCCOC)c(OCCOC)cc23)c1 [erlotinib, reference compound]
PLC5 xenograft tumor
  tumor inhibition, PLC5 cell: 50.0%
[10]
  tolerability (signs of toxicity, body weight, necropsy): tolerated the treatments well without observable signs of toxicity
Huh-7 xenograft tumor
  effect on Huh-7 tumor growth, in words: no effect on tumor growth
  tumor inhibition, Huh7 cell: 8.8%

## C=C1[C@@H](O)[C@@H]2O[C@]3(CC[C@H](/C=C/[C@@H](C)[C@@H]4CC(C)=C[C@@]5(O[C@H](C[C@@](C)(O)C(=O)O)CC[C@H]5O)O4)O3)CC[C@H]2O[C@@H]1[C@@H](O)C[C@H](C)[C@H]1O[C@@]2(CCCCO2)CC[C@H]1C [okadaic acid, reference compound]
p-Akt; SK-Hep-1 cells treated with compound 19 (FIG. 5B)
  p-Akt level in compound 19 treated cells: reversed p-Akt level

Source: US9394261B2, “Aryl amine substituted pyrimidine and quinazoline and their use as anticancer drugs” (National Yang-Ming University, priority 2012, dated 2016)
